Where a name gives a salt, the structure may show the parent alone.
Key:
[1] = molecular target: recombinant human 5-HT6 receptor (Homo sapiens, UniProt P50406); test: Radioligand binding studies: competition for [3H]LSD binding in membranes of HEK293 cells expressing the receptor
Sequence of recombinant human 5-HT6 receptor (P50406 whole entry): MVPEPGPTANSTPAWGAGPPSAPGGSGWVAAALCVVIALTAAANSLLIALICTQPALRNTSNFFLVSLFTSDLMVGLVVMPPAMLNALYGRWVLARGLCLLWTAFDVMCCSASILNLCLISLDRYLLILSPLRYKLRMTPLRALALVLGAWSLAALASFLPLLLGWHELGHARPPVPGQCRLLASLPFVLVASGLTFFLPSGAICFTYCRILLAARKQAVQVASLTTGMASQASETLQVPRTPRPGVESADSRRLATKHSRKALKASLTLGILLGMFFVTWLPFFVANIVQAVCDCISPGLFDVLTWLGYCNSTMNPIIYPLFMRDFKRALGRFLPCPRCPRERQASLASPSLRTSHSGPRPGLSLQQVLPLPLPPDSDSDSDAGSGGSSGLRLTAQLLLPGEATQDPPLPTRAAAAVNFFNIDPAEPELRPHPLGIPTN

melting point | Compound | Ki [1]
214 to 216 °C | O=S(=O)(c1ccccc1)N1CCc2c(cccc2N2CCNCC2)C1 (as salt: trifluoroacetic acid salt) | 
 | O=S(=O)(c1cccc(Cl)c1Cl)N1CCc2c(cccc2N2CCNCC2)C1 [Compound 16, 2-(2,3-Dichloro-benzenesulfonyl)-5-pipe-razin-1-yl-1,2,3,4-tetra-hydroisoquinoline] | 0.0427 nM

Source: US7196088B2, “Substituted tetrahydroisoquinolines and uses thereof” (Roche Palo Alto LLC, priority 2003, dated 2007)
